Test results from publication PMC6013238, “Development of novel NEMO-binding domain mimetics for inhibiting IKK/NF-κB activation” (PLoS Biology, 2018).
Values joined by “and” are separate entries in the source; they are usually repeats but may differ in a detail not shown here. Equal values may be shown once.

Experiments:
[1] = biological target: T1, IKKβ/NEMO interaction (Mus musculus, UniProt O88522); assay: Co-immunoprecipitation of endogenous IKKβ and NEMO in Raw 264.7 cells; assay type: cell-based; settings: 100 μM mimetics, 8K-NBD 400 μM, 30 min
T1 construct: Co-immunoprecipitation of endogenous IKKβ and NEMO; endogenous in cells; host or cells: Raw 264.7
T1 sequence (O88522 whole entry): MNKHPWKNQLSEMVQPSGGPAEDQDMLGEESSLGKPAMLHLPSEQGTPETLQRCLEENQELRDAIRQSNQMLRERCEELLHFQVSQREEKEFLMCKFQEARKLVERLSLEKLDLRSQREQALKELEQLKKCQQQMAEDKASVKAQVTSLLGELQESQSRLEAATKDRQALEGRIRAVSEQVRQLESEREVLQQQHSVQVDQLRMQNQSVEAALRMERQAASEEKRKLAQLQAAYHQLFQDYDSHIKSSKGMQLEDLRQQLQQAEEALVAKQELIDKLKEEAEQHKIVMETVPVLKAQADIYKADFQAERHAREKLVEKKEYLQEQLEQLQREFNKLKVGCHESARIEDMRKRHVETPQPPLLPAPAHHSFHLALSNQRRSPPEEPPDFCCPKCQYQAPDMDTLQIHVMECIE
Description: To determine whether the novel NBD mimetics target the NEMO-IKKβ interaction in vivo, co-immunoprecipitations were performed using extracts from Raw 264.7 macrophages (Fig 5A). […] No interaction between NEMO and TNF receptor-associated factor 2 (TRAF2) or IκBα was observed under these conditions. […] The levels of phosphorylated IKK complex, IκBα, and p65 in response to TNF-α and LPS were all reduced by SR12343 (Fig 5D & 5E). […] However, there were no changes in the levels of phospho-c-Jun N-terminal kinase (p-JNK), p-p38MAPK, total JNK, and p38MAPK by treatment with SR12343 (150 μM) in response to TNF-α or LPS stimulation (Fig 5G & 5H). […]
(A) Co-IP analysis detecting the IKKβ/NEMO interaction. […] NEMO-binding products were then analyzed for levels of IKKβ, IKKα, TRAF2, and IκBα (negative control), and levels of NEMO were used as a loading control (left panel). […] The levels of IKKβ-FLAG binding to GST-NEMO were determined by western blot analysis with GST-NEMO used as a loading control. […] Cell lysates were analyzed for activity of the IKK/NF-κB signaling pathway including activation of IKK complex, IκBα, and p65. […] Cell lysates were harvested and analyzed for activation of noncanonical NF-κB signaling, the processing of p100 to p52. […]

[2] = tested on: HEK293 cells; settings: Fig 2D; 100 μM, 24 h
Description: (A) HEK293 cells stably expressing NF-κB luciferase reporter were pretreated with indicated small molecules at 100 μM for 30 min, followed by stimulation with TNF-α (10 ng/ml) for 3 h. Luciferase activity was normalized to untreated stimulated control cells. […] (B) The dose-dependent response of ZINC12909780 was tested by NF-κB luciferase assay in HEK293 cells. Three independent experiments were performed, and data shown represent mean +/− SD. […] (D) HEK293 cells were cultured in the presence of 100 μM of indicated derivatives for 24 h, and cell survival was determined by MTT assay. Cell viability was calculated by normalizing to untreated cells. (E) Dose-dependent inhibitory effects were determined for ZINC5 at 0, 25, 50, and 100 μM by using NF-κB luciferase assay. (F) HEK293 were cultivated in the presence of ZINC5 at listed concentrations for 24 h, and cell survival was assessed by MTT assay. Data represent the mean +/− SD from 4–5 independent experiments. *P < 0.05; **P < 0.01; ***P < 0.001. Underlying data can be found in S1 Data. HEK293, human embryonic kidney 293 cells; MTT, 3-(4,5-dimethylthiazol-2-yl)-2,5-dephenyltetrazolium bromide colormetric assay for assessing cell metabolic activity; NF-κB, nuclear factor κB; TNF-α; tumor necrosis factor α; SD, standard deviation.
HEK293 cells were grown in a 96-well plate at 3 × 10^4 cells/well in triplicate and treated with DMSO or listed small molecules at indicated concentrations for 24 h. Cell survival was determined by adding 20 μl of 5 mg/ml MTT (thiazolyl blue tetrazolium bromide) to each well, followed by incubation in 37 °C for 3 h. Media were removed, and purple formazan was dissolved in 100 uL of DMSO. Absorbance was measured at 590 nm on a microplate reader (PerkinElmer, Waltham, MA). Cell viability was calculated by normalizing values to untreated controls.

| Structure (SMILES) | IKKβ-NEMO interaction (Co-IP) [1] | Cell viability normalized to untreated cells (MTT) [2] |
| --- | --- | --- |
| O=C(CNc1ccc(Cl)cn1)NCCc1cccc(Br)c1 [SR12343] | most effective |  |
| O=C(COC(=O)Cc1ccccc1F)Nc1ccc(Cl)cn1 [ZINC5] |  | 95 and 80 and 84 and 81 |
